From US4459404A, “Amides of retinoic acids with 5-amino tetrazole” (BASF Aktiengesellschaft, priority 1980, dated 1984)
Read-outs that look alike come from different tables or passages of the source.

Assays:
[1] = system: dorsal skin (erythema and scaling); parameters: species or system New Zealand white rabbit (male); conditions: rabbit, in vivo
Protocol: 4. Topical tolerance study of the test substances Six New Zealand white male rabbits were used in each study. Sites, each about 6 cm^2 in size, were shaved on the dorsal trunk of each test animal. The test substances were dissolved in a 70:30 volume/volume alcohol:propylene glycol mixture and 0.2 ml of the solution was applied topically from an automatic micropipette by gentle inunction to a pre-designated site twice daily, with an interval of six hours, for nine successive days. All sites were subjectively evaluated for erythema and scaling at the beginning of the test and before each morning application. A numerical grading scale of 0 to 3 was used (0=no reaction, 1=mild, 2=moderate, 3=severe).

[2] = system: male Sprague-Dawley CD rats; assay: Comparative oral toxicity in rats (inhibition of growth and lethality over two weeks); conditions: for Proportion of survivors, Day 6 / Proportion of survivors, Day 11: 25 μmole/day in corn oil with 4% chloroform; for Average weight, Day 6 / Average weight, Day 11: 25 μmole/day, initial weight 95-110 g; for Average weight, Day 6: Day 6, mean with standard deviation; for Average weight, Day 11: Day 11, mean with standard deviation
Protocol: 2. Comparative toxicity of all-E-N-(tetrazol-5-yl)-retinamide and 13-Z-N-(tetrazol-5-yl)-retinamide.
(a) Male Sprague-Dawley CD rats from Charles River (50-75 g) were randomized and weighed daily for one week before the start of the experiment. At the beginning of the toxicological screen the animals weighed 95-110 g.
(b) The vehicle for the test substances was corn oil containing 4% of chloroform. The dose was 25 μmole of test substance/day, in 0.5 ml of vehicle.

[3] = system: comedones induced by coal tar (rabbit ear model); assay: Comedolytic activity in a rabbit ear model; assay type: in vivo, albino rabbit; conditions: topical, two weeks, decrease in comedones vs control ear
Protocol: Comedo formation was induced by topical application (0.5 ml), once daily, of 5% coal tar in Polyan® (an ester of lanolin alcohol and linoleic acid, from Amerchol Corp., USA) to both ears of albino rabbits on 5 successive days per week, for two weeks. Following this, the test substance, in a 70:30 volume/volume alcohol:propylene glycol mixture, was applied topically, in an amount of 0.5 ml, to the inner surface of one ear of each rabbit once daily on 5 consecutive days per week, for two weeks. The contra-lateral ear of each rabbit served as an untreated control.
Following a subsequent treatment (~72 hours) with the test substance, the rabbits were sacrificed. A sample of skin, of about 6 cm^2, was removed from the pinna of each ear just external to the auditory canal and was divided into pieces of about 1 cm^2.
These pieces of skin were immersed in water at 60° C. for 2 minutes. The epidermis was carefully peeled off using the flat end of a spatula and fine forceps, and was placed on a microscope slide, with the dermal side facing upward. After overnight airdrying, the slide was examined under the stereomicroscope. Follicular extensions of horny material remain intact. Comedones show up as discrete, uniformly shaped, cylindrical to global horny masses, whose size and number are proportional to the […].
The comedolytic effect was determined by the decrease in the number of comedones in comparison with the control ear.

[4] = system: keratinization of hamster tracheal epithelium (tracheal organ culture, vitamin A deficiency); assay: Reversal of keratinization in tracheal organ culture; assay type: cell-based; conditions: Mesocricetus auratus, 240 h, read-out: ED50 (molar dose effective in suppressing keratinization in one-half of the cultures)
From the text: This keratinization is inhibited, after initiation by chemical compounds, through the use of high energy radiation, or after viral cell transformation, through the use of the novel compounds of the formula (I). The method is described in Cancer Res. 36 (1976), 964-972, Nature 250 (1974), 64-66 and Nature 253 (1975), 47-50.
This assay measures the intrinsic ability of the novel compounds to control epithelial cell differentiation. The significant predictive value of this screening procedure for the potential use of a novel retinoid in the prevention of epithelial tissue tumors is generally accepted. At the same time it is known that any in vitro test system has disadvantages for the prediction of in vivo activity. Apart from these fundamental limitations, the tracheal organ culture assay is one of the most valuable procedures for evaluating the biological activity of a novel retinoid.
The assay procedure determines the ability of the two compounds to reverse keratinization in a defined in vitro system. Tracheas from hamsters in a very early stage of vitamin A deficiency were placed in organ culture. At that time, the animals were 29-30 days old (having been weaned at 21 days) and were still gaining some weight. Their average weight was 47-52 g. Their tracheal epithelium was generally low columnar or cuboidal, with only occasional patches of squamous metaplasia. Each trachea was opened from the larynx to the carina along the membranous dorsal wall and placed in culture in a serum-free medium (CMRL-1066 supplemented with crystalline bovine insulin, 1.0 μg/ml; hydrocortisone hemisuccinate, 0.1 μg/ml; glutamine, 2 mM; penicillin, 100 units/ml; and streptomycin, 100 μg/ml). The cultures were gassed with a mixture of 50% of oxygen, 45% of nitrogen and 5% of carbon dioxide. The culture dishes were rocked through 35.5-36.0 degrees to contact the tracheas with both gas and medium. All tracheas were maintained in medium containing no retinoid for the first 3 days. At the end of the 3 days, some tracheas were harvested. Almost all of these tracheas had significant squamous metaplasia. […]

[5] = system: the organism; conditions: in vivo; cited from earlier work
[6] = system: liver; conditions: use in therapy; cited from earlier work
[7] = hamster tracheal organ culture, serum-free medium, 10 days, extrapolated from dose-response curves

| Structure (SMILES) | Rating erythema [1] | Rating scaling [1] | mean erythema [1] | mean scaling [1] | Proportion of survivors, Day 6 [2] | Proportion of survivors, Day 11 [2] | Average weight, Day 6 [2] | Average weight, Day 11 [2] | % comedolytic activity ([3]; 0.025% concentration) [%] | IC50 [4, 7] [nM] | toxic effects [5] | % comedolytic activity ([3]; 0.05% concentration) [%] | IC50 [4] [nM] | liver retinoid concentration and organ damage [6] | % comedolytic activity ([3]; 0.1% concentration) [%] |
| --- | --- | --- | --- | --- | --- | --- | --- | --- | --- | --- | --- | --- | --- | --- | --- |
| CC1=C(/C=C/C(C)=C/C=C/C(C)=C/C(=O)Nc2nnn[nH]2)C(C)(C)CCC1 [all-E-N--(tetrazol-5-yl)-retinamide, all-E-N-(tetrazol-5-yl)-retinamide] | mild | none | 0.8 | 0 | 3/4 | 3/4 | 124 ± 6 | 155 ± 4 | 35.1 | 0.1 |  |  |  |  |  |
| CC1=C(/C=C/C(C)=C/C=C/C(C)=C/C(=O)O)C(C)(C)CCC1 [all-E-retinoic acid, reference compound] | moderate | moderate | 2.3 | 1.9 | 3/5 | 0/5 | 95 ± 2 |  |  |  | even slightly increased doses cause severe damage to the organism, for example with symptoms of hypervitaminosis-A | 58.3 | 0.03 |  |  |
| CC1=C(/C=C/C(C)=C/C=C/C(C)=C/CO)C(C)(C)CCC1 [retinol] |  |  |  |  |  |  |  |  |  |  |  |  |  | intolerably high retinoid concentration in the liver leads to severe and irreversible damage to the organ |  |
| CC1=C(/C=C/C(C)=C/C=C/C(C)=C\C(=O)Nc2nnn[nH]2)C(C)(C)CCC1 [13-Z-N--(tetrazol-5-yl)-retinamide, 13-Z-N-(tetrazol-5-yl)-retinamide] | mild | none | 0.5 | 0.1 | 2/5 | 2/5 | 122 ± 18 | 140 ± 27 |  | 0.2 |  |  |  |  | 39.4 |
| CC(=O)OC/C=C(C)/C=C/C=C(C)/C=C/C1=C(C)CCCC1(C)C [retinyl acetate] |  |  |  |  |  |  |  |  |  |  |  |  |  | intolerably high retinoid concentration in the liver leads to severe and irreversible damage to the organ |  |
| CC1=C(/C=C/C(C)=C/C=C/C(C)=C\C(=O)O)C(C)(C)CCC1 [13-Z-retinoic acid, reference compound] | severe | severe | 3.0 | 3.0 |  |  |  |  |  |  |  |  |  |  |  |
